Data as given in patent US7416741B2, “Copper lowering treatment of inflammatory and fibrotic diseases” (The Regents of the University of Michigan, priority 2002, dated 2008).
Where two headings read alike, the source gives them in different places.

Key:
rats = settings: cited from earlier work
[1] = tested on: animal model of renal fibrosis; assay: Streptozotocin rat model of renal fibrosis; type: in vivo; settings: Ex 7
Procedure: A study is carried out in an animal model of renal fibrosis. After kidney injury of almost any type, a diffuse interstitial fibrosis (believed to be due to over-activity of the TGFβ pathway) produces kidney failure. Rats are made diabetic by administering streptozotocin; renal fibrosis is typically well developed by 60 days after initiation of streptozotocin administration. TM therapy is initiated at varying times relative to streptozotocin administration in several groups of rats, and the results compared to control groups not receiving TM. Typically, at least three […] are present in each experimental group. In one group, TM therapy is initiated prior to streptozotocin administration, to determine whether TM therapy mitigates the pancreatic damage, as it mitigates hepatitis/cirrhosis in the concanavilin A mouse model described above. In other groups, TM is started after streptozotocin administration, at various times, to determine if it can mitigate the renal fibrosis that develops after streptozotocin administration.

LEC rat model = settings: LEC rats, late stages of liver disease; cited from earlier work
IL-1β = assay: Plasma IL-1β in Con A treated mice; type: in vivo, mouse; settings: Ex 5 Exp 3; p=0.15
From the text: In a third experiment, two Con A injections one week apart were given to 10 mice. Five of the mice had begun TM treatment 5 days prior to the first injection. All the mice were sacrificed 2 hrs after the last Con A injection.

TGFβ [2] = assay: Lung TGFβ levels (ELISA or PAI-1 promoter-luciferase cell line), bleomycin model; type: in vivo, mouse
Procedure: Lung TGFβ levels were measured using either ELISA with a kit from R&D Systems (Minneapolis, Minn.), or using a cell line stably transfected with a plasminogen activator inhibitor-1 (PAI-1) promoter-luciferase construct (M Abe et al., Analytical Biochemistry, 216:276-284 [1994]). Briefly for the latter assay, mink lung epithelial cells transfected with the PAI-1 promoter construct were incubated with the indicated activated (by pre-acidification) test samples diluted (1:2 dilution) in fresh media. After a 24 hr incubation, the cells were lysed with reporter lysis buffer (Promega, Madison, Wis.). Luciferase activity was measured by the luciferase assay system (Promega) and read using a Reporter microplate luminometer (Turner Designs, Sunnyvale, Calif.). Human TGFβ1 (R&D Systems) was used as a standard.

[3] = tested on: carbon tetrachloride (CT) mouse model; assay: Serum ALT in the carbon tetrachloride (CT) mouse model of liver damage; type: in vivo; settings: Ex 6; TM from week 5; sacrifice week 12; p<0.0008; protection only partial
Procedure: (§1) The carbon tetrachloride (CT) mouse model produces much more liver fibrosis (cirrhosis) than the Con A model. In this model carbon tetrachloride is injected intraperitoneally twice weekly, and after 12 weeks, a well-established cirrhosis should be present. This can be evaluated histologically, and can be quantitated by measuring liver hydroxyproline, a major amino acid in collagen. The TM was started in TM treated animals at the beginning of week 5 and the animals were sacrificed at week 12.
There were 4 animals in the CT group, 4 in the CT/TM group, 2 in the olive oil/TM group, and 1 in the TM group. Since there were so few animals in the last two groups, and since their data were generally similar, they were combined.

TGFβ [4] = assay: TGFβ ELISA in brain homogenates of Tg2576 mice; type: in vivo, mouse; settings: Ex 8; TM-treated Tg2576 mice
Procedure: Brain homogenates of left hemi-brains are used for detection of human Aβ40 and Aβ42 by ELISA, as previously described (J Gau J et al., Amer. J. Pathology, 160 2:731-738 […]). Homogenates are centrifuged at 7840×g for 5 minutes at 4 ° C. to remove insoluble material. A sandwich ELISA is performed on the supernatants using BAN50 as the capture antibody and either horseradish peroxidase-coupled BA-27 or BC-05 as the detection antibody for Aβ40 or Aβ42, respectively. BAN-50 is a monoclonal antibody specific for Aβ1-10. All samples are measured in triplicate. Standard curves for the ELISA are constructed using pure human Aβ40 and Aβ42 (Bachem). In addition to measurements of Aβ, a commercially available ELISA is used to detect TGFβ levels in brain homogenates of the two groups.

serum ceruloplasmin (Cp) = assay: Copper status by serum ceruloplasmin (oxidase activity) in mice; type: in vivo, mouse; settings: for Ceruloplasmin Values: Ex 1 Exp 2
From the text: Copper status. In the presence of TM therapy, copper status is difficult to assess by measuring serum copper directly, since a slowly turning over tripartite complex of TM, copper, and albumin accumulates, causing the serum copper to be elevated even though availability of copper is decreasing. However, the inventors have previously determined that serum ceruloplasmin (Cp) is a good surrogate marker of copper status (G J Brewer et al., Clin. Cancer, 6: 1-10 [2000]), because the liver secretes this copper containing protein into the blood at a rate dependent upon copper availability. Copper status was followed by assaying serum ceruloplasmin (Cp), by measuring its oxidase activity (K H Schosinsky et al., Clin. Chem., 20(12)1556-1563 [1974]). Blood was obtained from the tail vein of the mice. To avoid excessive bleeding, only one mouse from each group was bled at any time point during the study, and mice were rotated so that different mice were bled at the different time points. A Cp assay in all mice was done at time of sacrifice.
Copper status. In the presence of TM therapy, copper status cannot be assessed by direct measurement of serum copper because of the accumulation of a tripartite complex of TM, copper, and albumin that turns over slowly, causing the serum copper to be increased even though availability of copper is decreasing. […] Copper status was monitored by assaying serum ceruloplasmin on the basis of its oxidase activity in blood from the tail vein. To avoid excessive bleeding, one mouse from each group was bled at each time point; mice were rotated so that different mice were bled. A ceruloplasmin assay was conducted in each mouse when it was killed.

[5] = tested on: carbon tetrachloride (CT) mouse model; assay: Liver hydroxyproline and histology in the CT mouse model; type: in vivo; settings: Ex 6
Procedure: as §1

## [SH-].[SH-].[S]=[Mo]=[S] [TM, tetrathiomolybdate]
rats; approximately 6 mg of TM per kilogram of diet
  effects on copper levels (plasma ceruloplasmin, liver and kidney copper): substantial effects on copper levels
rats; approximately 12 mg of TM per kilogram of diet
  anemia: Mild anemia
rats; approximately 12 mg of TM
  skeletal lesions: one of six animals
rats; approximately 18 mg of TM
  anemia: severe
  growth rate: markedly impaired
  skeletal lesions: all animals had skeletal lesions
[1]; TM after diabetes is induced
  renal fibrosis: mitigates the renal fibrosis
[1]; TM before streptozotocin
  pancreatic damage: mitigates pancreatic damage
LEC rat model
  efficacy against copper toxicity / liver disease: very effective
IL-1β
  plasma levels of IL-1β: close to being significantly lower
TGFβ [2]; Ex 2 Exp 1, bleomycin/TM, day 7, p=0.06
  lung TGFβ protein level (ELISA), bleomycin-induced increase: inhibited this increase
TGFβ [2]; Ex 2 Exp 2, TM from day 5, day 21, not statistically significant
  lung TGFβ protein levels (PAI-1 promoter-luciferase), bleomycin-induced increase: completely inhibited this increase
TGFβ [2]; Ex 2 Exp 3, TM started 5 days prior to bleomycin (Bleo/TM-5), p=0.04
  lung TGFβ protein levels (ELISA): significantly inhibited
[3]
  serum ALT, CT/TM group mean vs CT group: significantly lower
TGFβ [4]
  levels of TGFβ in brain homogenates: significant reduction
Serum ceruloplasmin (Cp); Ex 1 Exp 1, Bleomycin/TM group, sacrifice day 21
  Ceruloplasmin: 13.9 ± 3.3 I.U
Serum ceruloplasmin (Cp); Ex 1 Exp 1, TM alone (group 4)
  mean ceruloplasmin relative to saline controls: about 80%
Serum ceruloplasmin (Cp); Ex 1 Exp 1, TM only group, sacrifice day 21
  Ceruloplasmin: 18.1 ± 3.4 I.U
Serum ceruloplasmin (Cp); Ex 1 Exp 1, bleomycin/TM mice (group 3)
  mean ceruloplasmin level relative to bleomycin animals: about 55%
Serum ceruloplasmin (Cp); TM 0.3 mg/day/mouse, day 14, single mouse
  Ceruloplasmin Values: 23.6 International Units
Serum ceruloplasmin (Cp); TM 0.3 mg/day/mouse, day 21 (sacrifice), mean and standard error of four mice
  Ceruloplasmin Values: 5.4 ± 2.7 International Units
Serum ceruloplasmin (Cp); TM 0.5 mg/day/mouse, day 8, single mouse
  Ceruloplasmin Values: 14.4 International Units
Serum ceruloplasmin (Cp); TM 0.5 mg/day/mouse, day 14, single mouse
  Ceruloplasmin Values: 10.6 International Units
Serum ceruloplasmin (Cp); TM 0.5 mg/day/mouse, day 21, mean and SE of four mice
  Ceruloplasmin Values: 4.5 ± 2.7 International Units
Serum ceruloplasmin (Cp); TM 0.7 mg/day/mouse, day 8, single mouse
  Ceruloplasmin Values: 12.6 International Units
Serum ceruloplasmin (Cp); TM 0.7 mg/day/mouse, day 14, single mouse
  Ceruloplasmin Values: 15.5 International Units
Serum ceruloplasmin (Cp); TM 0.7 mg/day/mouse, day 21, mean and SE of four mice
  Ceruloplasmin Values: 4.7 ± 2.2 International Units
Serum ceruloplasmin (Cp); TM 0.9 mg/day/mouse, day 8, single mouse
  Ceruloplasmin Values: 0.6 International Units
Serum ceruloplasmin (Cp); TM 0.9 mg/day/mouse, day 14, single mouse
  Ceruloplasmin Values: 3.7 International Units
Serum ceruloplasmin (Cp); TM 0.9 mg/day/mouse, day 21, mean and SE of four mice
  Ceruloplasmin Values: 1.8 ± 0.7 International Units
Serum ceruloplasmin (Cp); TM maintenance 0.3 mg/day/mouse, day 8, single mouse
  Ceruloplasmin Values: 20.3 International Units
Serum ceruloplasmin (Cp); Ex 2 Exp 1, TM 1.2 mg/day 4 days before bleomycin then 0.9 mg/day, sacrifice day 7
  mean Cp levels in TM treated groups relative to non-TM treated groups: approximately half
Serum ceruloplasmin (Cp); Ex 2 Exp 2, TM started 5 days after bleomycin, sacrifice day 21
  mean Cp level of bleomycin/TM group as % of the bleomycin group mean: 38%
Serum ceruloplasmin (Cp); Ex 2 Exp 2, sacrifice day 21
  mean Cp of TM control group as % of the saline control group mean: 50%
Serum ceruloplasmin (Cp); daily gavage of 0.7 mg TM/mouse
  serum Cp levels relative to baseline levels: 25-50%
[5]; CT/TM treated liver
  liver histology: essentially normal
[5]; CT/TM, after week 12
  liver fibrosis as evaluated by hydroxyproline: blocks all fibrosis
